The results in this text go back to patent publication US20240067632A1, “WEE1 Degrading Compounds and Uses Thereof” (Bristol-Myers Squibb Company, priority 2022, published 2024).

Like-named read-outs stand apart in the source and are kept apart here.

The target of one assay is T1, WEE1 (Homo sapiens, UniProt P30291+Q96SW2).
T1 construct: C-terminal ePL-tagged (DiscoverX, Fremont, CA) full-length WEE1 expression construct; expressed in transfected cells; host or cells: LentiX-HEK293T (Invitrogen), lentiviral transduction; co-expressing GSPT1-GN (G576N, lacking the first 158 amino acids)
Put plainly: WEE1-ePL degradation assay (LentiX-WEE1-ePL-GSPT1-ND cells, InCELL Hunter luminescence, 4 h). Type of assay: cell-based. Conditions: 293T-LentiX WEE1-ePL cells; for DC50: read-out: 293T-LentiX WEE1-ePL Degradation 4 hr (EC50). An outline of the steps: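 HEK293T cells stably expressing C-terminal ePL-tagged full-length WEE1, 2500 cells/well, treated 4 h at 37° C with a 10-point 3-fold series from 1 or 10 uM. Remaining WEE1-ePL read by InCELL Hunter luminescence after 30 min. EC50 came from a four-parameter logistic fit, with Ymax set from DMSO control.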

In another assay the test system is MKN45 cells. The experiment in a line: MKN45 cell proliferation assay (Cell-Titer-Glo, 120 h). The class given is cell-based. The settings on record: for EC50: Cell-Titer-Glo, read-out: MKN45 Cell Prolif. 120 hr (EC50); for MKN45 Cell Prolif. 120 hr (Ymin-Obs): minimal percent of DMSO control observed in the concentrations tested. An outline of the steps:
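Cells seeded at 400/well onto pre-printed 10-point half-log dilutions (top 1 or 10 uM, 0.1% DMSO final), in triplicate, and grown 120 h at 37 C. Viability by Cell-Titer-Glo luminescence, blank-subtracted and normalised to DMSO; EC50 from four-parameter logistic fit, with observed minimal % of control recorded as Ymin-obs.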

[1] abbreviates: lower limit of the fit (0 = luciferase inhibitor, Ymax = DMSO control).
The mark [2] stands for this setting: Homo sapiens, MKN-45, 120 h, growth inhibition.

One may read the EC50 as the midpoint of the concentration-response curve. On to `Cc1cc(CN2CC[C@H](Oc3ccc4c(c3)CN(C3CCC(=O)NC3=O)C4=O)C2)ncc1OCC1CCOCC1` (stereo partly drawn) [3-(5-{[(3S)-1-({4-methyl-5-[(oxan-4-yl)methoxy]pyridin-2-yl}methyl)pyrrolidin-3-yl]oxy}-1-oxo-2,3-dihydro-1H-isoindol-2-yl)piperidine-2,6-dione], for which, at WEE1 (setting [1]), the “293T-LentiX WEE1-ePL Degradation 4 hr (Ymin)” value worked out at 42. Also, on WEE1, the DC50 was 9.71 nM. The EC50 in the assay with MKN45 cells (setting [2]) was 44.9 nM. Besides, the “MKN45 Cell Prolif. 120 hr (Ymin-Obs)” value with MKN45 cells came out at 16.9.

With `O=C1CCC(N2Cc3cc(O[C@H]4CCN(Cc5ccc6nc(C(F)(F)F)ncc6c5)C4)ccc3C2=O)C(=O)N1` (stereo partly drawn) [3-(1-oxo-5-{[(3S)-1-{[2-(trifluoromethyl)quinazolin-6-yl]methyl}pyrrolidin-3-yl]oxy}-2,3-dihydro-1H-isoindol-2-yl)piperidine-2,6-dione], on WEE1 (setting [1]), the “293T-LentiX WEE1-ePL Degradation 4 hr (Ymin)” value was 29.67. Besides, at WEE1, the DC50 is 8.11 nM. Besides, in the assay on MKN45 cells (setting [2]), the EC50 was 33.2 nM. In the assay on MKN45 cells, the “MKN45 Cell Prolif. 120 hr (Ymin-Obs)” value is 14.74.

Take `O=C1CCC(N2Cc3cc(O[C@H]4CCN(Cc5ccc6nc([C@@H]7CCCOC7)ccc6c5)C4)ccc3C2=O)C(=O)N1` (stereo partly drawn) [3-(5-{[(3S)-1-({2-[(3S)-oxan-3-yl]quinolin-6-yl}methyl)pyrrolidin-3-yl]oxy}-1-oxo-2,3-dihydro-1H-isoindol-2-yl)piperidine-2,6-dione]: on WEE1 (setting [1]), the “293T-LentiX WEE1-ePL Degradation 4 hr (Ymin)” value stood at 32. The DC50 at WEE1 is 2.15 nM. Further, the EC50 in the assay on MKN45 cells (setting [2]) came to 3.59 nM. Also, in the assay with MKN45 cells, the “MKN45 Cell Prolif. 120 hr (Ymin-Obs)” value came out at 10.6.

For the compound `O=C1CC[C@H](N2Cc3cc(O[C@@H]4CN(Cc5cc6ccc(C7CCOCC7)cc6cn5)CC4(F)F)ccc3C2=O)C(=O)N1` [(3S)-3-(5-{[(3R)-4,4-difluoro-1-{[7-(oxan-4-yl)isoquinolin-3-yl]methyl}pyrrolidin-3-yl]oxy}-1-oxo-2,3-dihydro-1H-isoindol-2-yl)piperidine-2,6-dione], the “293T-LentiX WEE1-ePL Degradation 4 hr (Ymin)” value on WEE1 (lower limit of the fit (Ymin=0 luciferase inhibitor, Ymax DMSO control)) was 26.77. The DC50 at WEE1 amounted to 2.76 nM. Further, in the assay on MKN45 cells (Homo sapiens, MKN-45, 120 h), the EC50 came out at 2.17 nM. The “MKN45 Cell Prolif. 120 hr (Ymin-Obs)” value in the assay with MKN45 cells is 9.546.

As for `O=C1CC[C@H](N2Cc3cc(O[C@H]4CCN(Cc5cc(F)c6nc(C7CCOCC7)ccc6c5)C4)ccc3C2=O)C(=O)N1` [(3S)-3-(5-{[(3S)-1-{[8-fluoro-2-(oxan-4-yl)quinolin-6-yl]methyl}pyrrolidin-3-yl]oxy}-1-oxo-2,3-dihydro-1H-isoindol-2-yl)piperidine-2,6-dione], at WEE1 (setting [1]), the “293T-LentiX WEE1-ePL Degradation 4 hr (Ymin)” value was 29.02. Moreover, the DC50 at WEE1 was determined as 1.45 nM. For the same compound, the concentration for a half-maximal effect (EC50) in the assay on MKN45 cells (setting [2]) was determined as 2.29 nM. Further, in the assay on MKN45 cells, the “MKN45 Cell Prolif. 120 hr (Ymin-Obs)” value is 8.43.

Take `COc1cc(C)nc2ccc(CN3CC[C@H](Oc4ccc5c(c4)CN(C4CCC(=O)NC4=O)C5=O)C3)cc12` (stereo partly drawn) [3-(5-{[(3S)-1-[(4-methoxy-2-methylquinolin-6-yl)methyl]pyrrolidin-3-yl]oxy}-1-oxo-2,3-dihydro-1H-isoindol-2-yl)piperidine-2,6-dione]: on WEE1 (setting [1]), the “293T-LentiX WEE1-ePL Degradation 4 hr (Ymin)” value is reported as 44.38. Further, the DC50 on WEE1 was found to be 26.8 nM. Moreover, the EC50 in the assay with MKN45 cells (setting [2]) is 1500 nM. In the assay with MKN45 cells, the “MKN45 Cell Prolif. 120 hr (Ymin-Obs)” value amounted to 47.92.

For `O=C1CCC(N2Cc3cc(O[C@H]4CCN(Cc5ccc6nnccc6c5)C4)ccc3C2=O)C(=O)N1` (stereo partly drawn) [3-(5-{[(3S)-1-[(cinnolin-6-yl)methyl]pyrrolidin-3-yl]oxy}-1-oxo-2,3-dihydro-1H-isoindol-2-yl)piperidine-2,6-dione], on WEE1 (setting [1]), the “293T-LentiX WEE1-ePL Degradation 4 hr (Ymin)” value is 26.65. The DC50 at WEE1 is 12.5 nM. Besides, in the assay on MKN45 cells (setting [2]), the concentration giving a half-maximal response (EC50) was 32.8 nM. Moreover, in the assay on MKN45 cells, the “MKN45 Cell Prolif. 120 hr (Ymin-Obs)” value is 8.19.

Consider `C[C@]1(Oc2ccc3c(c2)CN(C2CCC(=O)NC2=O)C3=O)CCN(Cc2ccc3nc(C#N)ccc3c2)C1` (stereo partly drawn) [6-{[(3S)-3-{[2-(2,6-dioxopiperidin-3-yl)-1-oxo-2,3-dihydro-1H-isoindol-5-yl]oxy}-3-methylpyrrolidin-1-yl]methyl}quinoline-2-carbonitrile], for which, at WEE1 (setting [1]), the “293T-LentiX WEE1-ePL Degradation 4 hr (Ymin)” value stood at 94. Besides, in the assay with MKN45 cells (setting [2]), the EC50 is greater than 10000 nM. For the same compound, in the assay with MKN45 cells, the “MKN45 Cell Prolif. 120 hr (Ymin-Obs)” value turned out to be 80.88.

On to `Cc1nc(CN2CC[C@H](Oc3ccc4c(c3)CN(C3CCC(=O)NC3=O)C4=O)C2)cc2ccccc12` (stereo partly drawn) [3-(5-{[(3S)-1-[(1-methylisoquinolin-3-yl)methyl]pyrrolidin-3-yl]oxy}-1-oxo-2,3-dihydro-1H-isoindol-2-yl)piperidine-2,6-dione], for which the “293T-LentiX WEE1-ePL Degradation 4 hr (Ymin)” value at WEE1 (setting [1]) worked out at 47.56. On WEE1, the DC50 turned out to be 31 nM. The concentration for a half-maximal effect (EC50) with MKN45 cells (setting [2]) stood at 5040 nM. In the assay with MKN45 cells, the “MKN45 Cell Prolif. 120 hr (Ymin-Obs)” value amounted to 50.77.

For `O=C1CCC(N2Cc3cc(O[C@H]4CCN(Cc5ccc(C(F)(F)F)cn5)C4)ccc3C2=O)C(=O)N1` (stereo partly drawn) [3-(1-oxo-5-{[(3S)-1-{[5-(trifluoromethyl)pyridin-2-yl]methyl}pyrrolidin-3-yl]oxy}-2,3-dihydro-1H-isoindol-2-yl)piperidine-2,6-dione], the “293T-LentiX WEE1-ePL Degradation 4 hr (Ymin)” value on WEE1 (setting [1]) is listed as 53.66. Moreover, the DC50 at WEE1 amounted to 52.6 nM. Also, in the assay on MKN45 cells (setting [2]), the half-maximal effective concentration (EC50) was found to be 363 nM. In addition, the “MKN45 Cell Prolif. 120 hr (Ymin-Obs)” value with MKN45 cells is 65.6.

With `O=C1CCC(N2Cc3cc(O[C@H]4CCN(Cc5ccc6nc(N7CCC78COC8)ncc6c5)C4)ccc3C2=O)C(=O)N1` (stereo partly drawn) [3-(5-{[(3S)-1-[(2-{6-oxa-1-azaspiro[3.3]heptan-1-yl}quinazolin-6-yl)methyl]pyrrolidin-3-yl]oxy}-1-oxo-2,3-dihydro-1H-isoindol-2-yl)piperidine-2,6-dione], the “293T-LentiX WEE1-ePL Degradation 4 hr (Ymin)” value at WEE1 (setting [1]) was 37. For the same compound, the DC50 on WEE1 amounted to 8.5 nM. The concentration giving a half-maximal response (EC50) with MKN45 cells (setting [2]) stood at 14.2 nM. In the assay on MKN45 cells, the “MKN45 Cell Prolif. 120 hr (Ymin-Obs)” value is on record as 14.05.

As to `N#Cc1ccc2cc(CN3C[C@@H](F)[C@H](Oc4ccc5c(c4)CN(C4CCC(=O)NC4=O)C5=O)C3)ccc2n1` (stereo partly drawn) [6-{[(3R,4R)-3-{[2-(2,6-dioxopiperidin-3-yl)-1-oxo-2,3-dihydro-1H-isoindol-5-yl]oxy}-4-fluoropyrrolidin-1-yl]methyl}quinoline-2-carbonitrile], the “293T-LentiX WEE1-ePL Degradation 4 hr (Ymin)” value on WEE1 (setting [1]) amounted to 32.7. Further, the DC50 on WEE1 came to 22.3 nM. Also, the EC50 in the assay on MKN45 cells (setting [2]) worked out at 91.6 nM. Also, the “MKN45 Cell Prolif. 120 hr (Ymin-Obs)” value with MKN45 cells is given as 37.36.

Regarding `COC1(c2ccc3cc(CN4CC[C@H](Oc5ccc6c(c5)CN(C5CCC(=O)NC5=O)C6=O)C4)ccc3n2)CCC1` (stereo partly drawn) [3-(5-{[(3S)-1-{[2-(1-methoxycyclobutyl)quinolin-6-yl]methyl}pyrrolidin-3-yl]oxy}-1-oxo-2,3-dihydro-1H-isoindol-2-yl)piperidine-2,6-dione], the “293T-LentiX WEE1-ePL Degradation 4 hr (Ymin)” value on WEE1 (setting [1]) was 31. Besides, the DC50 at WEE1 amounted to 2.69 nM. The EC50 in the assay with MKN45 cells (setting [2]) is 3.32 nM. The “MKN45 Cell Prolif. 120 hr (Ymin-Obs)” value in the assay with MKN45 cells was determined as 7.4.

Turning to `O=C1CCC(N2Cc3cc(O[C@H]4CCN(Cc5ccc6nc(N7CCCCC7=O)ccc6c5)C4)ccc3C2=O)C(=O)N1` (stereo partly drawn) [3-(1-oxo-5-{[(3S)-1-{[2-(2-oxopiperidin-1-yl)quinolin-6-yl]methyl}pyrrolidin-3-yl]oxy}-2,3-dihydro-1H-isoindol-2-yl)piperidine-2,6-dione], the “293T-LentiX WEE1-ePL Degradation 4 hr (Ymin)” value at WEE1 (setting [1]) is 31.5. For the same compound, the DC50 on WEE1 amounted to 1.73 nM. The EC50 with MKN45 cells (setting [2]) is 0.959 nM. Further, the “MKN45 Cell Prolif. 120 hr (Ymin-Obs)” value with MKN45 cells is 7.56.

Regarding `O=C1CCC(N2Cc3cc(O[C@H]4CCN(Cc5ccc6cccnc6n5)C4)ccc3C2=O)C(=O)N1` (stereo partly drawn) [3-(5-{[(3S)-1-[(1,8-naphthyridin-2-yl)methyl]pyrrolidin-3-yl]oxy}-1-oxo-2,3-dihydro-1H-isoindol-2-yl)piperidine-2,6-dione], the “293T-LentiX WEE1-ePL Degradation 4 hr (Ymin)” value on WEE1 (setting [1]) is recorded as 75. In addition, at WEE1, the DC50 was 292 nM. In addition, the concentration giving a half-maximal response (EC50) with MKN45 cells (setting [2]) came to 1020 nM. Also, in the assay on MKN45 cells, the “MKN45 Cell Prolif. 120 hr (Ymin-Obs)” value worked out at 65.94.

Take `O=C1CCC(N2Cc3cc(O[C@H]4CCN(Cc5ccc6nc(C7COC7)ccc6c5)C4)ccc3C2=O)C(=O)N1` (stereo partly drawn) [3-(5-{[(3S)-1-{[2-(oxetan-3-yl)quinolin-6-yl]methyl}pyrrolidin-3-yl]oxy}-1-oxo-2,3-dihydro-1H-isoindol-2-yl)piperidine-2,6-dione]: on WEE1 (setting [1]), the “293T-LentiX WEE1-ePL Degradation 4 hr (Ymin)” value amounted to 33. Besides, the DC50 on WEE1 was found to be 3.79 nM. Also, the EC50 with MKN45 cells (setting [2]) came out at 11.2 nM. The “MKN45 Cell Prolif. 120 hr (Ymin-Obs)” value in the assay with MKN45 cells is reported as 10.08.

Take `CO[C@H]1C[C@@H](c2ccc3cc(CN4CC[C@H](Oc5ccc6c(c5)CN(C5CCC(=O)NC5=O)C6=O)C4)ccc3n2)C1` (stereo partly drawn) [drawing 581, 3-(1-oxo-5-{[(3S)-1-({2-[(1s,3s)-3-methoxycyclobutyl]quinolin-6-yl}methyl)pyrrolidin-3-yl]oxy}-2,3-dihydro-1H-isoindol-2-yl)piperidine-2,6-dione]: the “293T-LentiX WEE1-ePL Degradation 4 hr (Ymin)” value at WEE1 (setting [1]) came to 23.8. The DC50 at WEE1 was found to be 5.35 nM. Moreover, in the assay with MKN45 cells (growth inhibition), the EC50 worked out at 2.41 nM. Also, the “MKN45 Cell Prolif. 120 hr (Ymin-Obs)” value in the assay with MKN45 cells turned out to be 7.75.
